Species on record: Rattus norvegicus
Experiment: Open TG-GATES - Regimen: Single
Assay type: toxicity, organism-based, Sprague-Dawley
Parameters: regimen Single, gender Male, age 6 weeks
Details: in vivo, iv, route intravenous injection; for Bas / Eos / Hb / Ht / Lym / MCH / MCHC / MCV / Mono / Neu / Plat / RBC / Ret: tissue Blood; for KIDNEY_L / KIDNEY_R / KIDNEY_TOTAL: tissue Kidney; for ALT / AST / CRE / DBIL / GLC / K / LDH / Na / PL / RALB / TBIL / TC / TP / gamma-GTP: tissue Plasma
[1] = 0 mg/kg, 3 h, dose level Control
[2] = 0 mg/kg, 6 h, dose level Control
[3] = 0 mg/kg, 9 h, dose level Control
[4] = 0 mg/kg, 24 h, dose level Control

CC(C)C[C@H](NC(=O)[C@H](Cc1ccccc1)NC(=O)c1cnccn1)B(O)O [BORTEZOMIB]
TERMINAL_BW [1]: 223 g
Bas [1]: 0%
Eos [1]: 0.8%
Hb [1]: 13.9 g/dL
Ht [1]: 39.5%
Lym [1]: 81.4%
MCH [1]: 22.9 pg
MCHC [1]: 35.2%
MCV [1]: 65.1 fL
Mono [1]: 2.6%
Neu [1]: 14.8%
Plat [1]: 124.1 x10_4/uL
RBC [1]: 607 x10_4/ul
Ret [1]: 9.3%
KIDNEY_L [1]: 0.9 g
KIDNEY_R [1]: 0.9 g
KIDNEY_TOTAL [1]: 1.9 g
ALT [1]: 38.6 IU/L
AST [1]: 70.4 IU/L
CRE [1]: 0.2 mg/dL
DBIL [1]: 0 mg/dL
GLC [1]: 191.2 mg/dL
K [1]: 3.9 meq/L
LDH [1]: 175.8 IU/L
Na [1]: 142.3 meq/L
PL [1]: 138.6 mg/dL
RALB [1]: 4.1 g/dL
TBIL [1]: 0.006 mg/dL
TC [1]: 74.6 mg/dL
TP [1]: 5.6 g/dL
gamma-GTP [1]: 0.7 IU/L
TERMINAL_BW [2]: 220.7 g
Bas [2]: 0%
Eos [2]: 0.4%
Hb [2]: 13.7 g/dL
Ht [2]: 38.8%
Lym [2]: 77.6%
MCH [2]: 22.1 pg
MCHC [2]: 35.4%
MCV [2]: 62.5 fL
Mono [2]: 2.8%
Neu [2]: 18.4%
Plat [2]: 117.1 x10_4/uL
RBC [2]: 622.4 x10_4/ul
Ret [2]: 8.7%
KIDNEY_L [2]: 1 g
KIDNEY_R [2]: 1 g
KIDNEY_TOTAL [2]: 2 g
ALT [2]: 37 IU/L
AST [2]: 78.8 IU/L
CRE [2]: 0.2 mg/dL
DBIL [2]: 0 mg/dL
GLC [2]: 176.6 mg/dL
K [2]: 4.4 meq/L
LDH [2]: 219.2 IU/L
Na [2]: 141.6 meq/L
PL [2]: 141.4 mg/dL
RALB [2]: 4 g/dL
TBIL [2]: 0.014 mg/dL
TC [2]: 75.4 mg/dL
TP [2]: 5.6 g/dL
gamma-GTP [2]: 0.8 IU/L
TERMINAL_BW [3]: 222.6 g
Bas [3]: 0%
Eos [3]: 1%
Hb [3]: 14 g/dL
Ht [3]: 40.5%
Lym [3]: 71%
MCH [3]: 22.2 pg
MCHC [3]: 34.5%
MCV [3]: 64.3 fL
Mono [3]: 3.4%
Neu [3]: 24.4%
Plat [3]: 108.5 x10_4/uL
RBC [3]: 630.2 x10_4/ul
Ret [3]: 9.3%
KIDNEY_L [3]: 1 g
KIDNEY_R [3]: 1 g
KIDNEY_TOTAL [3]: 1.9 g
ALT [3]: 39.8 IU/L
AST [3]: 78 IU/L
CRE [3]: 0.2 mg/dL
DBIL [3]: 0 mg/dL
GLC [3]: 179.4 mg/dL
K [3]: 3.9 meq/L
LDH [3]: 187.2 IU/L
Na [3]: 141.5 meq/L
PL [3]: 139 mg/dL
RALB [3]: 3.9 g/dL
TBIL [3]: 0.022 mg/dL
TC [3]: 78.6 mg/dL
TP [3]: 5.5 g/dL
gamma-GTP [3]: 0.8 IU/L
TERMINAL_BW [4]: 236.7 g
Bas [4]: 0%
Eos [4]: 0.6%
Hb [4]: 13.8 g/dL
Ht [4]: 38.2%
Lym [4]: 81.2%
MCH [4]: 22.9 pg
MCHC [4]: 36.1%
MCV [4]: 63.5 fL
Mono [4]: 3%
Neu [4]: 14.6%
Plat [4]: 113.7 x10_4/uL
RBC [4]: 603 x10_4/ul
Ret [4]: 8%
KIDNEY_L [4]: 1.1 g
KIDNEY_R [4]: 1 g
KIDNEY_TOTAL [4]: 2.1 g
ALT [4]: 42 IU/L
AST [4]: 74.4 IU/L
CRE [4]: 0.2 mg/dL
DBIL [4]: 0 mg/dL
GLC [4]: 182.4 mg/dL
K [4]: 4.2 meq/L
LDH [4]: 190.4 IU/L
Na [4]: 140.8 meq/L
PL [4]: 146.4 mg/dL
RALB [4]: 4 g/dL
TBIL [4]: 0.002 mg/dL
TC [4]: 74.2 mg/dL
TP [4]: 5.7 g/dL
gamma-GTP [4]: 1 IU/L
TERMINAL_BW (1 mg/kg, 3 h, dose level High): 228.6 g
Bas (1 mg/kg, 3 h, dose level High): 0%
Eos (1 mg/kg, 3 h, dose level High): 0.6%
Hb (1 mg/kg, 3 h, dose level High): 14.6 g/dL
Ht (1 mg/kg, 3 h, dose level High): 41.1%
Lym (1 mg/kg, 3 h, dose level High): 73%
MCH (1 mg/kg, 3 h, dose level High): 22.6 pg
MCHC (1 mg/kg, 3 h, dose level High): 35.4%
MCV (1 mg/kg, 3 h, dose level High): 63.7 fL
Mono (1 mg/kg, 3 h, dose level High): 2.2%
Neu (1 mg/kg, 3 h, dose level High): 23.8%
Plat (1 mg/kg, 3 h, dose level High): 121.1 x10_4/uL
RBC (1 mg/kg, 3 h, dose level High): 645.8 x10_4/ul
Ret (1 mg/kg, 3 h, dose level High): 8.6%
KIDNEY_L (1 mg/kg, 3 h, dose level High): 0.9 g
KIDNEY_R (1 mg/kg, 3 h, dose level High): 1 g
KIDNEY_TOTAL (1 mg/kg, 3 h, dose level High): 1.9 g
ALT (1 mg/kg, 3 h, dose level High): 60 IU/L
AST (1 mg/kg, 3 h, dose level High): 123.6 IU/L
CRE (1 mg/kg, 3 h, dose level High): 0.2 mg/dL
DBIL (1 mg/kg, 3 h, dose level High): 0.008 mg/dL
GLC (1 mg/kg, 3 h, dose level High): 155 mg/dL
K (1 mg/kg, 3 h, dose level High): 4.2 meq/L
LDH (1 mg/kg, 3 h, dose level High): 295.6 IU/L
Na (1 mg/kg, 3 h, dose level High): 141.3 meq/L
PL (1 mg/kg, 3 h, dose level High): 99 mg/dL
RALB (1 mg/kg, 3 h, dose level High): 3.7 g/dL
TBIL (1 mg/kg, 3 h, dose level High): 0.012 mg/dL
TC (1 mg/kg, 3 h, dose level High): 63.6 mg/dL
TP (1 mg/kg, 3 h, dose level High): 5 g/dL
gamma-GTP (1 mg/kg, 3 h, dose level High): 0.8 IU/L
TERMINAL_BW (1 mg/kg, 6 h, dose level High): 226.8 g
Bas (1 mg/kg, 6 h, dose level High): 0%
Eos (1 mg/kg, 6 h, dose level High): 0.2%
Hb (1 mg/kg, 6 h, dose level High): 14.2 g/dL
Ht (1 mg/kg, 6 h, dose level High): 39.8%
Lym (1 mg/kg, 6 h, dose level High): 61%
MCH (1 mg/kg, 6 h, dose level High): 22.8 pg
MCHC (1 mg/kg, 6 h, dose level High): 35.7%
MCV (1 mg/kg, 6 h, dose level High): 63.8 fL
Mono (1 mg/kg, 6 h, dose level High): 2.2%
Neu (1 mg/kg, 6 h, dose level High): 35.6%
Plat (1 mg/kg, 6 h, dose level High): 113.4 x10_4/uL
RBC (1 mg/kg, 6 h, dose level High): 623.4 x10_4/ul
Ret (1 mg/kg, 6 h, dose level High): 8.3%
KIDNEY_L (1 mg/kg, 6 h, dose level High): 1 g
KIDNEY_R (1 mg/kg, 6 h, dose level High): 1 g
KIDNEY_TOTAL (1 mg/kg, 6 h, dose level High): 1.9 g
ALT (1 mg/kg, 6 h, dose level High): 116.4 IU/L
AST (1 mg/kg, 6 h, dose level High): 191.4 IU/L
CRE (1 mg/kg, 6 h, dose level High): 0.2 mg/dL
DBIL (1 mg/kg, 6 h, dose level High): 0.006 mg/dL
GLC (1 mg/kg, 6 h, dose level High): 148.2 mg/dL
K (1 mg/kg, 6 h, dose level High): 4.4 meq/L
LDH (1 mg/kg, 6 h, dose level High): 314.4 IU/L
Na (1 mg/kg, 6 h, dose level High): 141.2 meq/L
PL (1 mg/kg, 6 h, dose level High): 78.4 mg/dL
RALB (1 mg/kg, 6 h, dose level High): 3.7 g/dL
TBIL (1 mg/kg, 6 h, dose level High): 0.008 mg/dL
TC (1 mg/kg, 6 h, dose level High): 44.6 mg/dL
TP (1 mg/kg, 6 h, dose level High): 4.9 g/dL
gamma-GTP (1 mg/kg, 6 h, dose level High): 0.6 IU/L
TERMINAL_BW (1 mg/kg, 9 h, dose level High): 222.8 g
Bas (1 mg/kg, 9 h, dose level High): 0%
Eos (1 mg/kg, 9 h, dose level High): 0.8%
Hb (1 mg/kg, 9 h, dose level High): 14.3 g/dL
Ht (1 mg/kg, 9 h, dose level High): 40.6%
Lym (1 mg/kg, 9 h, dose level High): 49%
MCH (1 mg/kg, 9 h, dose level High): 23 pg
MCHC (1 mg/kg, 9 h, dose level High): 35.2%
MCV (1 mg/kg, 9 h, dose level High): 65.2 fL
Mono (1 mg/kg, 9 h, dose level High): 2%
Neu (1 mg/kg, 9 h, dose level High): 48.2%
RBC (1 mg/kg, 9 h, dose level High): 622 x10_4/ul
Ret (1 mg/kg, 9 h, dose level High): 8.2%
KIDNEY_L (1 mg/kg, 9 h, dose level High): 1 g
KIDNEY_R (1 mg/kg, 9 h, dose level High): 1 g
KIDNEY_TOTAL (1 mg/kg, 9 h, dose level High): 2 g
ALT (1 mg/kg, 9 h, dose level High): 122.2 IU/L
AST (1 mg/kg, 9 h, dose level High): 182 IU/L
CRE (1 mg/kg, 9 h, dose level High): 0.2 mg/dL
DBIL (1 mg/kg, 9 h, dose level High): 0.014 mg/dL
GLC (1 mg/kg, 9 h, dose level High): 150.4 mg/dL
K (1 mg/kg, 9 h, dose level High): 4 meq/L
LDH (1 mg/kg, 9 h, dose level High): 262 IU/L
Na (1 mg/kg, 9 h, dose level High): 140.9 meq/L
PL (1 mg/kg, 9 h, dose level High): 74 mg/dL
RALB (1 mg/kg, 9 h, dose level High): 3.6 g/dL
TBIL (1 mg/kg, 9 h, dose level High): 0.02 mg/dL
TC (1 mg/kg, 9 h, dose level High): 36.2 mg/dL
TP (1 mg/kg, 9 h, dose level High): 4.7 g/dL
gamma-GTP (1 mg/kg, 9 h, dose level High): 0.8 IU/L
TERMINAL_BW (1 mg/kg, 24 h, dose level High): 215.1 g
Bas (1 mg/kg, 24 h, dose level High): 0%
Eos (1 mg/kg, 24 h, dose level High): 0%
Hb (1 mg/kg, 24 h, dose level High): 12.6 g/dL
Ht (1 mg/kg, 24 h, dose level High): 35.2%
Lym (1 mg/kg, 24 h, dose level High): 42%
MCH (1 mg/kg, 24 h, dose level High): 23.4 pg
MCHC (1 mg/kg, 24 h, dose level High): 35.8%
MCV (1 mg/kg, 24 h, dose level High): 65.5 fL
Mono (1 mg/kg, 24 h, dose level High): 2.7%
Neu (1 mg/kg, 24 h, dose level High): 54%
Plat (1 mg/kg, 24 h, dose level High): 89 x10_4/uL
RBC (1 mg/kg, 24 h, dose level High): 538.3 x10_4/ul
Ret (1 mg/kg, 24 h, dose level High): 5.4%
KIDNEY_L (1 mg/kg, 24 h, dose level High): 1 g
KIDNEY_R (1 mg/kg, 24 h, dose level High): 1 g
KIDNEY_TOTAL (1 mg/kg, 24 h, dose level High): 2 g
ALT (1 mg/kg, 24 h, dose level High): 163 IU/L
AST (1 mg/kg, 24 h, dose level High): 368.7 IU/L
CRE (1 mg/kg, 24 h, dose level High): 0.2 mg/dL
DBIL (1 mg/kg, 24 h, dose level High): 0.5 mg/dL
GLC (1 mg/kg, 24 h, dose level High): 134.7 mg/dL
K (1 mg/kg, 24 h, dose level High): 4 meq/L
LDH (1 mg/kg, 24 h, dose level High): 922.3 IU/L
Na (1 mg/kg, 24 h, dose level High): 135.5 meq/L
PL (1 mg/kg, 24 h, dose level High): 100.3 mg/dL
RALB (1 mg/kg, 24 h, dose level High): 2.7 g/dL
TBIL (1 mg/kg, 24 h, dose level High): 0.5 mg/dL
TC (1 mg/kg, 24 h, dose level High): 41 mg/dL
TP (1 mg/kg, 24 h, dose level High): 3.9 g/dL
gamma-GTP (1 mg/kg, 24 h, dose level High): 4.3 IU/L

Source: ChEMBL document CHEMBL3885861, “Open TG-GATES”
